*1 amine or outer side, *2 acyl side, *3 side chain or, on linkers, in order; H or OH if unused. Where a SMILES comes first, the peptide text is derived from it. Bridges are numbered along the chain shown (N, C = ends). [ ]: non-standard residue; d: D form. The star is where a group is joined. NMeNva(5-imidazol-1-yl) = CN[C@@H](CCCn1ccnc1)C(=O)O; Phe(4-guanidino) = N=C(N)Nc1ccc(C[C@H](N)C(=O)O)cc1; X77 = O=C([C@H](Cc1cnn(C2CCOCC2)c1)N[*:1])[*:2]; Ala(pyrimidin-5-yl) = N[C@@H](Cc1cncnc1)C(=O)O; X8 = CN([C@@H](Cc1ccc(F)nc1)C(=O)[*:2])[*:1]; NMeHis(τ-Me) = CN[C@@H](Cc1cn(C)cn1)C(=O)O; X33 = O=C([C@H](Cc1ccnc(F)c1F)N[*:1])[*:2]; X42 = O=C([C@H](Cc1cc(F)ncc1F)N[*:1])[*:2]; X24 = O=C([C@H](Cc1ccncc1Cl)N[*:1])[*:2]; Ethyl(2-pyrrolidin-1-yl) = C1CCN(CC*)C1; Phe(4-F) = N[C@@H](Cc1ccc(F)cc1)C(=O)O; 1Nal = N[C@@H](Cc1cccc2ccccc12)C(=O)O; NHCH2CH2SCH2CO = O=C(CSCCN[*:1])[*:2]; X47 = O=C([C@H](Cc1ccoc1)N[*:1])[*:2]; Phe(2-F) = N[C@@H](Cc1ccccc1F)C(=O)O; NMe3Pal = CN[C@@H](Cc1cccnc1)C(=O)O; X1 = O=C(C12CC(CN[*:1])(C1)C2)[*:2]; Ala(cPr) = N[C@@H](CC1CC1)C(=O)O; NMeF = CN[C@@H](Cc1ccccc1)C(=O)O; PhLac = O=C(O)[C@@H](O)Cc1ccccc1; X79 = O=C(C1CCC(N[*:1])CC1)[*:2]; 3Pal = N[C@@H](Cc1cccnc1)C(=O)O; 4Pal = N[C@@H](Cc1ccncc1)C(=O)O; d(αMeC) = C[C@@](N)(CS)C(=O)O; Ahp(2) = CCCCC[C@H](N)C(=O)O; Cba = N[C@@H](CC1CCC1)C(=O)O; hLeu = CC(C)CC[C@H](N)C(=O)O; αMeC = C[C@](N)(CS)C(=O)O; NMeA = CN[C@@H](C)C(=O)O; Nle = CCCC[C@H](N)C(=O)O; Nva = CCC[C@H](N)C(=O)O

KRAS-G12D protein, sequence (P01116 1-188 isoform P01116-2 G12D): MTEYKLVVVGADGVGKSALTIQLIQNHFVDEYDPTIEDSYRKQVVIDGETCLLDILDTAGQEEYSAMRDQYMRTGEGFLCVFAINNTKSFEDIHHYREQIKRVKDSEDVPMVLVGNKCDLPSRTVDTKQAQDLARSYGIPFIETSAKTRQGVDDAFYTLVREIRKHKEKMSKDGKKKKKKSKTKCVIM

The experiment has as its target KRAS-G12D protein (Homo sapiens, UniProt P01116, G12D). Put plainly: SOS-mediated nucleotide exchange assay (BODIPY-GDP / Tb-streptavidin TR-FRET). It is filed as biochemical.
Regarding `CCCCC[C@@H]1NC(=O)[C@H](Cc2ccoc2)NC(=O)[C@H](CC2CCC2)NC(=O)[C@H](Cc2cccnc2)NC(=O)[C@H](CCCNC(=N)N)NC(=O)[C@H](Cc2ccccc2)NC(=O)CSC[C@@](C)(C(N)=O)NC(=O)[C@H](Cc2ccccc2)N(C)C1=O` [compound 374, cyclo(F-R-3Pal-cBuA-Ala3Fur-Ahp-NMeF-aMeCl-ClAc)] ({CH2CO}-FR[3Pal][Cba][X47][Ahp(2)][NMeF][αMeC]-NH2; thioether N-8), the EC50 was 69.8 nM.
In turn, `CC(C)CC[C@@H]1NC(=O)[C@H](Cc2cc(F)ncc2F)NC(=O)[C@H](CC2CC2)NC(=O)[C@H](Cc2cncnc2)NC(=O)[C@H](C)N(C)C(=O)[C@H](Cc2ccccc2)OC(=O)C23CC(CNC(=O)[C@H](Cc4ccccc4)N(C)C1=O)(C2)C3` [compound 280, cyclo(FLac-NMcA-PyrimAla-cPrA-4Pal25F2-hL-NMeF-amBCP)] (cyclo([Ala(cPr)][X42][hLeu][NMeF][X1][PhLac][NMeA][Ala(pyrimidin-5-yl)])) yielded an EC50 of 4 nM.
Take `CCCC[C@@H]1NC(=O)[C@H](Cc2ccc(O)cc2)NC(=O)[C@H](CC(C)C)NC(=O)[C@H](Cc2ccc(O)cc2)NC(=O)[C@H](CCCNC(=N)N)NC(=O)[C@H](Cc2ccc(F)cc2)NC(=O)CSCCNC(=O)[C@H](Cc2ccccc2)N(C)C1=O` [compound 75, cyclo(Phe4F-R-Y-L-Y-Nle-NMeF-Cysteamine-ClAc)] (cyclo(LY[Nle][NMeF][NHCH2CH2SCH2CO][Phe(4-F)]RY)): a half-maximal response (EC50) required 2510 nM.
In turn, `CCCC[C@@H]1NC(=O)[C@H](Cc2ccc(NC(=N)N)cc2)NC(=O)[C@H](CCCNC(=N)N)NC(=O)[C@H](Cc2cccc3ccccc23)NC(=O)CSC[C@](C)(C(=O)O)NC(=O)[C@H](Cc2ccccc2)N(C)C(=O)[C@H](CCCC)NC(=O)[C@H](Cc2ccc(O)cc2)NC1=O` [compound 143, cyclo(INal-R-Phe4Gn-Nlc-Y-Nle-NMeF-daMeC-ClAc)] ({CH2CO}-[1Nal]R[Phe(4-guanidino)][Nle]Y[Nle][NMeF][d(αMeC)]-OH; thioether N-8) registered an EC50 of 575 nM.
Take `CCCC[C@@H]1NC(=O)[C@H](Cc2cncnc2)NC(=O)[C@H](CCCn2ccnc2)N(C)C(=O)[C@H](Cc2ccccc2)OC(=O)C23CC(CNC(=O)[C@H](Cc4ccccc4)N(C)C(=O)[C@H](CCCC)NC(=O)[C@H](Cc4ccccc4F)NC1=O)(C2)C3` (single isomer, unassigned) [compound 222, cyclo(FLac-NMeNvalmid-PyrimAla-Nle-Phe2F-Nle-NMeF-amBCP)]: the EC50 amounted to 494 nM.
Under `CC(C)CC[C@@H]1NC(=O)[C@H](Cc2ccnc(F)c2F)NC(=O)[C@H](CC2CC2)NC(=O)[C@H](Cc2cncnc2)NC(=O)[C@H](C)N(C)C(=O)[C@H](Cc2ccccc2)OC(=O)C23CC(CNC(=O)[C@H](Cc4ccccc4)N(C)C1=O)(C2)C3` [compound 293, cyclo(FLac-NMeA-PyrimAla-cPrA-4Pal23F2-hL-NMeF-amBCP)] (cyclo([Ala(cPr)][X33][hLeu][NMeF][X1][PhLac][NMeA][Ala(pyrimidin-5-yl)])) stands 259 nM; under `CCCC[C@@H]1NC(=O)[C@H](Cc2ccc(O)cc2)NC(=O)[C@H](CC(C)C)NC(=O)[C@H](Cc2ccc(OC)cc2)NC(=O)[C@H](CCCNC(=N)N)NC(=O)[C@H](Cc2ccccc2)NC(=O)CSCCNC(=O)[C@H](Cc2ccccc2)N(C)C1=O` [compound 72, cyclo(F-R-TyrOMe-L-Y-Nle-NMeF-Cysteamine-ClAc)], 2250 nM.
On to `CCCC[C@@H]1NC(=O)[C@H](Cc2cccnc2)NC(=O)[C@H](CCCNC(=N)N)NC(=O)[C@H](Cc2ccccc2)OC(=O)C23CC(CNC(=O)[C@H](Cc4ccccc4)N(C)C(=O)[C@H](CCCC)NC(=O)[C@H](Cc4ccccc4F)NC1=O)(C2)C3` [compound 212, cyclo(FLac-R-3Pal-Nle-Phe2F-Nle-NMeF-amBCP)] (cyclo([PhLac]R[3Pal][Nle][Phe(2-F)][Nle][NMeF][X1])), for which the EC50 is 20.7 nM. Against the preceding molecule, the EC50 is about 110-fold lower.
As for `CCCC[C@@H]1NC(=O)[C@H](Cc2cccnc2)NC(=O)[C@H](CCCn2ccnc2)N(C)C(=O)[C@H](Cc2ccccc2)NC(=O)C23CC(CNC(=O)[C@H](Cc4cccnc4)N(C)C(=O)[C@H](CCCC)NC(=O)[C@H](Cc4ccccc4F)NC1=O)(C2)C3` [compound 265, cyclo(F-NMeNvalmid~3Pal-Nle-Phe2F-Nlc-NMe3Pal-amBCP)] (cyclo(F[NMeNva(5-imidazol-1-yl)][3Pal][Nle][Phe(2-F)][Nle][NMe3Pal][X1])), the figure is 90.9 nM; as for `CCCC[C@@H]1NC(=O)[C@H](Cc2ccc(OCCN3CCCC3)cc2)NC(=O)[C@H](C)N(C)C(=O)[C@H](Cc2ccccc2)OC(=O)C23CC(CNC(=O)[C@H](Cc4ccccc4)N(C)C(=O)[C@H](CCCC)NC(=O)[C@H](Cc4ccccc4F)NC1=O)(C2)C3` [compound 316, cyclo(FLac-NMeA-TyrOEtPyr-Nle-Phe2F-Nle-NMeF-amBCP)] (cyclo([NMeA]Y(Ethyl(2-pyrrolidin-1-yl))[Nle][Phe(2-F)][Nle][NMeF][X1][PhLac])), 7.34 nM.
Consider `CCCC[C@@H]1NC(=O)[C@H](Cc2ccc(O)cc2)NC(=O)[C@H](CC(C)C)NC(=O)[C@H](Cc2ccc(NC(=N)N)cc2)NC(=O)[C@H](CCCNC(=N)N)NC(=O)[C@H](Cc2ccccc2)NC(=O)CSC[C@@H](C(N)=O)NC(=O)[C@H](Cc2ccccc2)N(C)C1=O` [compound 45, cyclo(F-R-Phe4Gn-L-Y-Nle-NMeF-Cl-ClAc)] ({CH2CO}-FR[Phe(4-guanidino)]LY[Nle][NMeF]C-NH2; thioether N-8), for which a half-maximal effect (EC50) was put at 12.6 nM.
The molecule `CC(C)CC[C@@H]1NC(=O)[C@H](Cc2ccccc2F)NC(=O)[C@H](CC2CC2)NC(=O)[C@H](Cc2cncnc2)NC(=O)[C@H](C)N(C)C(=O)[C@H](Cc2ccccc2)OC(=O)C23CC(CNC(=O)[C@H](Cc4ccc(F)nc4)N(C)C1=O)(C2)C3` [compound 339, cyclo(FLac-NMeA-PyrimAla-cPrA-Phe2F-hL-NMe3Pal4F-amBCP)] (cyclo([Ala(cPr)][Phe(2-F)][hLeu][X8][X1][PhLac][NMeA][Ala(pyrimidin-5-yl)])) returned an EC50 of 1 nM.
Take `CCCC[C@@H]1NC(=O)[C@H](Cc2cccnc2)NC(=O)[C@H](CCCNC(=N)N)NC(=O)[C@H](Cc2ccccc2)NC(=O)C2CCC(CC2)NC(=O)[C@H](Cc2ccccc2)N(C)C(=O)[C@H](CCCC)NC(=O)[C@H](Cc2ccc(OC)cc2)NC1=O` [compound 201, cyclo(F-R-3Pal-Nle-TyrOMe-Nle-NMeF-cHxclacid4NH2)] (cyclo([3Pal][Nle]Y(Me)[Nle][NMeF][X79]FR)): the midpoint of the response, the EC50, lay at 256 nM.
Under `CCCC[C@@H]1NC(=O)[C@H](Cc2cccnc2)NC(=O)[C@H](C)N(C)C(=O)[C@H](Cc2ccccc2)NC(=O)CSC[C@@](C)(C(N)=O)NC(=O)[C@H](Cc2ccccc2)N(C)C(=O)[C@H](CCCC)NC(=O)[C@H](Cc2ccccc2F)NC1=O` [compound 159, cyclo(F-NMeA-3Pal-Nle-Phe2F-Nle-NMeF-aMeCl-ClAc)] ({CH2CO}-F[NMeA][3Pal][Nle][Phe(2-F)][Nle][NMeF][αMeC]-NH2; thioether N-8) stands 110 nM.
Take `CC(C)CC[C@@H]1NC(=O)[C@H](Cc2ccncc2Cl)NC(=O)[C@H](CC2CC2)NC(=O)[C@H](Cc2cncnc2)NC(=O)[C@H](C)N(C)C(=O)[C@H](Cc2ccccc2)OC(=O)C23CC(CNC(=O)[C@H](Cc4ccccc4)N(C)C1=O)(C2)C3` [compound 298, cyclo(FLac-NMeA-PyrimAla-cPrA-4Pal2Cl-hL-NMeF-amBCP)] (cyclo([Ala(cPr)][X24][hLeu][NMeF][X1][PhLac][NMeA][Ala(pyrimidin-5-yl)])): the EC50 is 11 nM.
Consider `C[C@H]1C(=O)N[C@@H](Cc2cncnc2)C(=O)N[C@@H](CC2CC2)C(=O)N[C@@H](Cc2ccccc2F)C(=O)NC2CC/C=C\CC[C@@H](C(=O)NCC34CC(C3)(C4)C(=O)O[C@@H](Cc3ccccc3)C(=O)N1C)N(C)C2=O` [SEQ ID NO: 182, cyclo(FLac-NMeA-PyrimAla-cPrA-Phe2F-Hag-NMeHag-amBCP)], for which the midpoint of the response, the EC50, lay at 225 nM.
Regarding `CCCC[C@@H]1NC(=O)[C@H](Cc2cnn(C3CCOCC3)c2)NC(=O)[C@H](C)N(C)C(=O)[C@H](Cc2ccccc2)OC(=O)C23CC(CNC(=O)[C@H](Cc4ccccc4)N(C)C(=O)[C@H](CCCC)NC(=O)[C@H](Cc4ccccc4F)NC1=O)(C2)C3` [compound 308, cyclo(FLac-NMeA-AlaPyzlTHP4-Nle-Phe2F-Nle-NMeF-amBCP)] (cyclo([NMeA][X77][Nle][Phe(2-F)][Nle][NMeF][X1][PhLac])), the EC50 came to 6.86 nM. This EC50 is about 33-fold lower than that of the molecule before.
For the molecule `CCCCC[C@@H]1NC(=O)[C@H](Cc2ccc(OC)cc2)NC(=O)[C@H](CC2CCC2)NC(=O)[C@H](Cc2cccnc2)NC(=O)[C@H](CCCNC(=N)N)NC(=O)[C@H](Cc2ccccc2)NC(=O)CSC[C@@](C)(C(N)=O)NC(=O)[C@H](Cc2cn(C)cn2)N(C)C1=O` [compound 378, cyclo(F-R-3Pal-cBuA-TyrOMe-Ahp-NMeHis1Me-aMeCl-ClAc)] ({CH2CO}-FR[3Pal][Cba]Y(Me)[Ahp(2)][NMeHis(τ-Me)][αMeC]-NH2; thioether N-8), the EC50 was determined as 45.2 nM. This EC50 is about 6.6-fold higher than that of the molecule before.
For the molecule `CCCC[C@@H]1NC(=O)[C@H](Cc2ccc(O)cc2)NC(=O)[C@H](CCC)NC(=O)[C@H](Cc2ccc(O)cc2)NC(=O)[C@H](CCCNC(=N)N)NC(=O)[C@H](Cc2ccccc2)NC(=O)CSCCNC(=O)[C@H](Cc2ccccc2)N(C)C1=O` [compound 76, cyclo(F-R-Y-Nva-Y-Nle-NMeF-Cysteamine-ClAc)] (cyclo(FRY[Nva]Y[Nle][NMeF][NHCH2CH2SCH2CO])), the EC50 was 5310 nM.
On to `CCCC[C@@H]1NC(=O)[C@H](Cc2ccncc2)NC(=O)[C@H](CCCNC(=N)N)NC(=O)[C@H](Cc2ccc(F)cc2)NC(=O)CSCCNC(=O)[C@H](Cc2ccccc2)N(C)C(=O)[C@H](CCCC)NC(=O)[C@H](Cc2ccc(OC)cc2)NC1=O` [compound 90, cyclo(Phe4F-R-4Pal-Nle-TyrOMe-Nle-NMeF-Cysteamine-ClAc)] (cyclo([4Pal][Nle]Y(Me)[Nle][NMeF][NHCH2CH2SCH2CO][Phe(4-F)]R)), for which the EC50 is 432 nM. Against the preceding molecule, the EC50 is about 12-fold lower.
`CC(C)CC[C@@H]1NC(=O)[C@H](Cc2ccccc2F)NC(=O)[C@H](CC2CC2)NC(=O)[C@H](Cc2cncnc2)NC(=O)[C@H](C)N(C)C(=O)[C@H](Cc2ccccc2)OC(=O)C23CC(CNC(=O)[C@H](Cc4ccccc4)N(C)C1=O)(C2)C3` [compound 260, cyclo(FLac-NMeA-PyrimAla-cPrA-Phe2F-hL-NMeF-amBCP)] (cyclo([Ala(cPr)][Phe(2-F)][hLeu][NMeF][X1][PhLac][NMeA][Ala(pyrimidin-5-yl)])) registered an EC50 of 1.95 nM. This EC50 is about 220-fold lower than that of the molecule before.

The values above are taken from US20260001914A1, “MACROCYCLIC PEPTIDES TARGETING KRAS” (Merck Sharp & Dohme LLC, priority 2022, published 2026).
